From ChEMBL document CHEMBL4000246, “Total synthesis and cytotoxicity of Leucetta alkaloids” (Bioorg Med Chem, 2017)

Each compound was assayed on MCF7 (assay: Cytotoxicity against human MCF7 cells assessed as growth inhibition after 96 hrs by MTT assay).
Format: functional, cell-based

With COc1ccc(-c2c3cc(OC)c(OC)cc3cc3c2nc(N)n3C)cc1 as the compound, how does the IC50 read?
The IC50 was 4.4 µM.

Which IC50 does the source give for COc1ccc(-c2c3cc(OC)c(OC)c(OC)c3cc3c2ncn3C)cc1 here?
Its IC50 is 68.2 µM.

COc1ccc(Cn2cc(Cc3ccc(OC)c(OC)c3)nc2/N=C2/NC(=O)N(C)C2=O)cc1 [ISONAAMIDINE E] was tested. Which IC50 did it give?
The IC50 was 5.78 µM.

Which IC50 does the source give for COc1ccc(-c2c3[nH]c(=O)n(C)c3cc3cc(OC)c(OC)c(OC)c23)cc1 here?
Its IC50 is 91.9 µM.

Which IC50 does the source give for COc1ccc(-c2c3ncn(C)c3cc3cc(OC)c(OC)c(OC)c23)cc1 here?
Its IC50 is over 100 µM.

How did the IC50 turn out when COc1ccc(Cn2cc(Cc3ccc(OC)c(OC)c3)nc2N)cc1 [ISONAAMINE C] was run?
Its IC50 is 28 µM.

COC1=C(OC)C(=O)c2c(cc3c(ncn3C)c2-c2ccc(OC)cc2)C1=O was tested. Which IC50 did it give?
The IC50 was 92 µM.

Which IC50 does the source give for COc1ccc(-c2c3nc(N)n(C)c3cc3cc(OC)c(OC)c(OC)c23)cc1 here?
Its IC50 is 19.5 µM.

COc1ccc(Cc2nc(N)n(C)c2Cc2ccc(OC)cc2)cc1 was tested. Which IC50 did it give?
The IC50 was 28.8 µM.

Which IC50 does the source give for COc1ccc(-c2c3cc(OC)c(OC)cc3cc3c2ncn3C)cc1 here?
Its IC50 is 99.8 µM.

How did the IC50 turn out when COc1ccc(-c2c3cc(OC)c(OC)c(OC)c3cc3c2nc(N)n3C)cc1 was run?
The IC50 was 4.94 µM.

Which IC50 does the source give for COc1ccc(Cc2c(C(OC)c3ccc(OC)cc3)nc(N)n2C)cc1 (stereo unspecified) here?
The IC50 was 22.7 µM.

How did the IC50 turn out when COc1ccc(Cc2nc(NC3=NC(=O)N(C)C3=O)n(C)c2Cc2ccc(OC)cc2)cc1 was run?
The IC50 was 5.08 µM.

Which IC50 does the source give for COc1ccc(-c2c3cc(O)c(OC)cc3cc3c2ncn3C)cc1 here?
The IC50 was 41.1 µM.

CN1C(=O)N=C(Nc2nc(Cc3ccc4c(c3)OCO4)cn2C)C1=O [CLATHRIDINE] was tested. Which IC50 did it give?
The IC50 was over 100 µM.

Which IC50 does the source give for COC1=C(OC)C(=O)c2c(cc3c([nH]c(=O)n3C)c2-c2ccc(OC)cc2)C1=O here?
Its IC50 is 43.8 µM.

With COc1ccc(-c2c3cc(O)c(OC)cc3cc3c2[nH]c(=N)n3C)cc1 [KEALIININE A] as the compound, how does the IC50 read?
Its IC50 is over 100 µM.

How did the IC50 turn out when COc1ccc(-c2c3cc(OCc4ccccc4)c(OC)cc3cc3c2ncn3C)cc1 was run?
The IC50 was 76.9 µM.

How did the IC50 turn out when Cn1cc(Cc2ccc3c(c2)OCO3)nc1N was run?
The IC50 was 23.4 µM.

With COC1=C(OC)C(=O)c2c(cc3c(nc(N)n3C)c2-c2ccc(OC)cc2)C1=O as the compound, how does the IC50 read?
The IC50 was over 100 µM.

Which IC50 does the source give for Cn1cnc(Cc2ccc3c(c2)OCO3)c1 here?
The IC50 was over 100 µM.
